Laboratory results as given in US11642309B2, “Aqueous compositions comprising bilastine and mometasone” (FAES FARMA, S.A., priority 2017, dated 2023).
Values after ≈ are worked out from the molar mass of the structure shown. Each block holds one molecule with its values, some of them ahead of it.

Legend:
Assay type in all cases: physicochemical
[1] = Solubility of bilastine and mometasone furoate monohydrate in formulations with HPBCD 12.5 to 100 mg/mL at pH 4.3, 4.6, 4.9 (Example 3); conditions: for solubility: thermodynamic from solid
Protocol: (§1) HPLC measurements were conducted using a HPLC-HCLASS Chromatographic System with PDA or UV-VIS detector equipped with a Xbridge Shield RP18 3.5 μm […] Column. Mobile phases were ammonium bicarbonate (10 mM pH 9, FLUKA), acetonitrile (FISCHER) and methanol ([…]). Samples were submitted to Acrodisc 32 mm Sryinge Filters with 1.2 μm Supor Membrane, Batch: 18-1077 (PALL).
Six different formulations (with mometasone furoate monohydrate and the rest of excipients as defined in example 2) were prepared (see table below). The six formulations had amounts of HPBCD from 12.5 to 100 mg/mL. Then, in each of them an excessive amount of bilastine was added and the maximum solubility was tested. Furthermore, the percentage of the mometasone furoate dissolved was also tested. All the measurements were conducted at time 0.

[2] = Solubility of bilastine with α-cyclodextrin (FIG. 2); conditions: aqueous composition with α-cyclodextrin, aqueous with cosolvent or surfactant or cyclodextrin; 5 wt. % α-cyclodextrine instead of HPBCD, pH 4.5, FIG. 2
[3] = Solubility of bilastine and mometasone furoate monohydrate in Kolliphor RH40 formulations (Example 4)
Protocol: To this end, aqueous formulations of Kolliphor RH40 at concentrations 0, 5, 15, 25 and 50 mg/mL and at pH values of 3.7, 4.0, 4.3 and 4.6 were prepared.
Additionally, 0.5 mg/mL of mometasone furoate monohydrate was added to each formulation. The influence of Kolliphor RH40 in bilastine solubility is represented in FIG. 3 in graphs A and B therein. It is shown that, at pH values above 4.3, Kolliphor RH40 at a concentration of 50 mg/mL is insufficient in solubilizing 8 mg/mL of Bilastine (FIG. 3 in graph A therein. In addition, at the concentration of 50 mg/mL and pH of 4.3, Kolliphor RH40 solubilizes more than 10% of the added mometasone furoate monohydrate (FIG. 3 in graph B therein.

[4] = Solubility of bilastine in water; conditions: solubility depends on the pH
[5] = Stability of formulation with Kolliphor RH40 in stability chambers (Example 5); conditions: Kolliphor RH40 50 mg/mL formulation
Protocol: as §1
In the formulation of the present example, sorbitan monooleate acts as an antifoam agent. A batch manufactured according to the table above was prepared, packaged and placed in stability chambers wherein the conditions were 25° C./40% RH and 40° C./25% RH for the duration of 3 months.

[6] = Stability of formulas with HPBCD in stability chambers (Example 6); conditions: HPBCD 25 mg/mL
Protocol: as §1
The three formulas (bilastine at a concentration of 2, 4 and 8 mg/mL) were placed in stability chambers wherein the conditions were 25° C./40% RH and 40° C./25% RH for the duration of 6 or 12 months.

[7] = Mometasone impurities under forced stability conditions, increasing HPBCD (Example 7); conditions: pH 4.6, 50° C., 3 months
Protocol: The percentage of Mometasone was calculated-using the following formula: […]
The percentage of Mometasone degradation products was calculated using the following formula: […]
To evaluate the influence that the cyclodextrin HPBCD had on the impurities of mometasone, formulations similar to the one described in example 1 (see table therein) were studied at pH 4.6 for increasing cyclodextrin concentrations of from 25 to 95 mg/mL. The formulations were submitted to forced stability conditions at 50° C. for a 3-month period. The results were obtained from HPLC measurements.

- solubility ([1]; aqueous with cosolvent or surfactant or cyclodextrin): ≥ 8000 µg/mL
- solubility ([1]; pH 4.6, aqueous with cosolvent or surfactant or cyclodextrin): ~10000 µg/mL (≈ 21.6 mM)
- solubility [2]: < 1000 µg/mL
- solubility ([3]; aqueous with cosolvent or surfactant or cyclodextrin, thermodynamic from solid): < 8000 µg/mL
- solubility in water [4]: slightly soluble
SMILES: CCOCCn1c(C2CCN(CCc3ccc(C(C)(C)C(=O)O)cc3)CC2)nc2ccccc21 [Bilastine, 2-[4-(2-{4-[1-(2-ethoxyethyl)-1H-benzimidazol-2-yl]-1-piperidinyl}ethyl)phenyl]-2-methylpropanoic acid]

- solubility of mometasone furoate ([1]; HPBCD 75 mg/ml (7.5 wt. %), FIG. 1 graph B): around 4 mg/ml
- added mometasone furoate monohydrate solubilized ([3]; Kolliphor RH40 50 mg/mL, pH 4.3, 0.5 mg/mL added, FIG. 3 graph B): more than 10%
- Total degradation products % w/w ([5]; 25° C./40% RH, 3 months): 0.31% w/w
- Total degradation products % w/w ([5]; 40° C./25% RH, 3 months): 0.33% w/w
- Total degradation products % w/w ([5]; T0): 0.15% w/w
- Total degradation products % w/w ([6]; formula Bilastine 2 mg/mL, 25° C. 40% RH 9 months): 0.05% w/w
- Total degradation products % w/w ([6]; formula Bilastine 2 mg/mL, 25° C. 40% RH 12 months): 0.05% w/w
- Total degradation products % w/w ([6]; formula Bilastine 2 mg/mL, 40° C. 25% RH 3 months): 0.15% w/w
- Total degradation products % w/w ([6]; formula Bilastine 2 mg/mL, 40° C. 25% RH 6 months): 0.20% w/w
- Total degradation products % w/w ([6]; formula Bilastine 2 mg/mL, T0): 0.05% w/w
- Total degradation products % w/w ([6]; formula Bilastine 4 mg/mL, 25° C. 40% RH 9 months): 0.05% w/w
- Total degradation products % w/w ([6]; formula Bilastine 4 mg/mL, 25° C. 40% RH 12 months): 0.05% w/w
- Total degradation products % w/w ([6]; formula Bilastine 4 mg/mL, 40° C. 25% RH 3 months): 0.14% w/w
- Total degradation products % w/w ([6]; formula Bilastine 4 mg/mL, 40° C. 25% RH 6 months): 0.18% w/w
- Total degradation products % w/w ([6]; formula Bilastine 4 mg/mL, T0): 0.05% w/w
- Total degradation products % w/w ([6]; formula Bilastine 8 mg/mL, 25° C. 40% RH 9 months): 0.05% w/w
- Total degradation products % w/w ([6]; formula Bilastine 8 mg/mL, 25° C. 40% RH 12 months): 0.05% w/w
- Total degradation products % w/w ([6]; formula Bilastine 8 mg/mL, 40° C. 25% RH 3 months): 0.14% w/w
- Total degradation products % w/w ([6]; formula Bilastine 8 mg/mL, 40° C. 25% RH 6 months): 0.17% w/w
- Total degradation products % w/w ([6]; formula Bilastine 8 mg/mL, T0): 0.05% w/w
- Dissolved mometasone (%) ([7]; HPBCD 25 mg/mL): 0.7%
- Mometasone impurities (%) ([7]; HPBCD 25 mg/mL): 0.2%
- Dissolved mometasone (%) ([7]; HPBCD 50 mg/mL): 3.0%
- Mometasone impurities (%) ([7]; HPBCD 50 mg/mL): 0.7%
- Dissolved mometasone (%) ([7]; HPBCD 65 mg/mL): 5.2%
- Mometasone impurities (%) ([7]; HPBCD 65 mg/mL): 1.0%
- Dissolved mometasone (%) ([7]; HPBCD 85 mg/mL): 7.2%
- Mometasone impurities (%) ([7]; HPBCD 85 mg/mL): 1.3%
- Dissolved mometasone (%) ([7]; HPBCD 95 mg/mL): 10.5%
- Mometasone impurities (%) ([7]; HPBCD 95 mg/mL): 1.9%
SMILES: C[C@@H]1C[C@H]2[C@@H]3CCC4=CC(=O)C=C[C@]4(C)[C@@]3(Cl)[C@@H](O)C[C@]2(C)[C@@]1(OC(=O)c1ccco1)C(=O)CCl.O [Mometasone Furoate monohydrate, Mometasone furoate monohydrate]
